Measurements taken from patent US20110098325A1, “PYRIDINE BENZAMIDES AND PYRAZINE BENZAMIDES USED AS PKD INHIBITORS” (CANCER RESEARCH TECHNOLOGY LIMITED, priority 2006, published 2011).

Molecular target: T1, human full length PKD2 (Homo sapiens, UniProt Q9BZL6)
T1 construct: human full length PKD2 at ˜100 μg/mL was purchased from Upstate Ltd; purchased Upstate Ltd 14-506
T1 sequence (Q9BZL6 1-878): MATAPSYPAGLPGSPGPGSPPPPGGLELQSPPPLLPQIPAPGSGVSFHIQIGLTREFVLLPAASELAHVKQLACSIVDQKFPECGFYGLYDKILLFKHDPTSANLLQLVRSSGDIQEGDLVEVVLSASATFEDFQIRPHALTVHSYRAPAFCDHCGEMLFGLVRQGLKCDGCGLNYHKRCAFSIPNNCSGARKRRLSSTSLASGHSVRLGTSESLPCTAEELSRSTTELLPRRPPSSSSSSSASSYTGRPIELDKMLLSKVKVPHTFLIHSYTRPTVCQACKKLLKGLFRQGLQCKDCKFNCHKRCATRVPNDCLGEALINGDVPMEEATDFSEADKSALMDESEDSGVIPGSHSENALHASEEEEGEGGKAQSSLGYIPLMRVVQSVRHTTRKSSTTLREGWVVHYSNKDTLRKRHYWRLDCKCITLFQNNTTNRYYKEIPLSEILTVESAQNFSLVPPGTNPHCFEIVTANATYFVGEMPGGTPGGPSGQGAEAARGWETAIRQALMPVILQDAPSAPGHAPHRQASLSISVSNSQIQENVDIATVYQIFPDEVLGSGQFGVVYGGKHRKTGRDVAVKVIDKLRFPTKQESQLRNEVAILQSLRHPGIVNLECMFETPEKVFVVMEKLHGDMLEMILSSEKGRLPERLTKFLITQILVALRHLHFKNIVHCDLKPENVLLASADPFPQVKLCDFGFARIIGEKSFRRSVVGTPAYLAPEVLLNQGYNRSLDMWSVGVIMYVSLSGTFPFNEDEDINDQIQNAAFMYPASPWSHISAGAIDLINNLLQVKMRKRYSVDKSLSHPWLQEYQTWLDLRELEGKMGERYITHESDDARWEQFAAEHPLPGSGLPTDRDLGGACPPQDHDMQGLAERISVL
Assay: PKD2 (Human Full Length) Enzyme Activity Assay (IMAP fluorescence polarisation)
Assay type: biochemical
Details: stands directly after the PKD2 data (b743-b745); read-out: IC50, printed as PKD1 (Human Full Length) Enzyme Activity Assay
Method: Kinase Assay Reaction Buffer: This consisted of 0.22 μM filtered 25 mM HEPES and 10 mM MgCl2 pH 7.5.
Kinase: human full length PKD2 at ˜100 μg/mL was purchased from Upstate Ltd (Product code 14-506), and obtained from aliquots stored at −70° C. It was prepared with a final concentration of 0.1 μg/mL by diluting 1:300 in Reaction Buffer (30 μL per 9 mL-5 mL per plate with an additional 4 mL dead volume) and vortexing prior to use. It is necessary to check this concentration regularly in case of enzyme degradation.
Substrate: Fluorescein labelled glycogen synthase-derived peptide (FI)-KKLNRTLSVA (also known as MAPKAP K2 substrate) was obtained from Molecular Devices (Product code R7127). […]
5 μL Kinase/Substrate in Reaction Buffer was added to ‘test’ and all ‘control’ wells of a Corning black low binding 384 well (90 μL volume) microplate to give 0.1 μg/mL and 2 μM reaction concentration respectively. […] The fluorescence polarisation of the peptide substrate was measured using an analyst (Molecular devices) microplate reader with a single read at Ex485 Em535 (Analyst settings: Z Height 5 mm, G Factor 0.95, Reads/well 1, Integration 100000 μs, Gain Sensitivity 2).
Percentage inhibition was calculated based on activity of the test sample minus the average values in the blank wells relative to the average values measured in control wells minus the average values in the blank wells. […]

`COc1cc(-c2cncc(-c3cccc(C(=O)NCCN(C)C)c3)n2)ccc1O` [X-007, N-(2-Dimethylamino-ethyl)-3-[6-(4-hydroxy-3-methoxy-phenyl)-pyrazin-2-yl]-benzamide] gave an IC50 of 420 nM.

Work on `COc1cc(-c2cc(-c3cccc(C(=O)NCCN(C)C)c3)cnc2N)ccc1O` [Y-059, 3-[6-Amino-5-(4-hydroxy-3-methoxy-phenyl)-pyridin-3-yl]-N-(2-dimethylamino-ethyl)-benzamide] yielded an IC50 of 32 nM.
